Experimental findings from patent US20120016010A1, “RNA Interference Mediated Inhibition of BTB and CNC Homology 1, Basic Leucine Zipper Transcription Factor 1 (BACH1) Gene Expression Using Short Interfering Nucleic Acid (siNA)” (Merck Sharp & Dohme Corp, priority 2009, published 2012) are described below.

For one data set, the system named is Bach1 mRNA. Description: Initial screen: Bach1 mRNA knock-down in mouse NIH 3T3 cells (96-well transfection, quantitative RT-PCR). It counts as cell-based. Conditions: mouse NIH3T3 cells, n = 2, 24 hrs post-transfection, protocol 10 nM siNA.
A further data set concerns HMOX-1 mRNA. The data set can be described thus: HMOX-1 mRNA increase in response to Bach1 siNA in human A549 cells. Type of data set: cell-based. Conditions: 24 hrs post-transfection, mean ± SD. The protocol:
A series of probes and primers were used to detect the various mRNA transcripts of the genes of Bach1, HMOX-1, and GAPDH in mouse and human cell lines. The assays were performed on an ABI 7900 instrument, according to the manufacturer's instructions. A TaqMan Gene Expression Master Mix (provided in the Cells-to-CTT™, Applied Biosystems, Cat # 4399002) was used. The PCR reactions were carried out at 50° C. for 2 min, 95° C. for 20 min followed by 40 cycles at 95° C. for 15 secs and 60° C. for 1 min
All calculations of IC50s were performed using SigmaPlot 10.0 software. The data were analyzed using the sigmoidal dose-response (variable slope) equation for simple ligand binding. In all of the calculations of the % knock-down, the calculation was made relative to the normalized level of expression of the gene of interest in the samples treated with the non-targeting control (Ctrl siNA) unless otherwise indicated.
For the statistical measures of significance for the HMOX-1 mRNA increase in response to Bach1 siNA treatment, a two-tailed Student's t-test on the dCt values for wells treated with the non-targeting control siNA compared with the dCt values for wells treated with the highest concentration of each respective active siNA, was performed.
Various siNAs were also evaluated for their potential to knock-down Bach1 protein. As no validated reagents were available to directly track changes in protein expression, this was done by assessing the increase in HMOX-1 mRNA in response to increasing doses of the active Bach1 siNAs.
The siNAs were tested at a single time point post-transfection (24 hrs). This was the time point at which the Bach1 mRNA levels had previously been determined. The non-targeting control siNA was also tested on each plate of samples and was found, across the six plates to show a maximum of 29±12% increase in the level of HMOX-1.
The comparison of the maximum percentage increase in HMOX-1 and EC50 and the maximum percentage decrease of Bach1 and IC50 are shown in Table 6. Table 6 also includes the measure of statistical significance for the increase in HMOX-1 mRNA levels in response to treatment with the respective Bach1 siNA.

Another data set deals with Male CD rats. Conditions: rat, in vivo, 10 mg/kg. The protocol: Male CD rats were anaesthetised and intra-tracheally dosed with 200 ul of either vehicle, Poly I:C (1 mg/kg) or siNA (10 mg/kg). 24 hours later the rats were euthanized and the lungs lavaged 3 times with 5 ml of heparinised PBS. Total and differential cell counts as well as cytokine analysis were performed on the lung lavage fluid.

For orientation: EC50 means the midpoint of the concentration-response curve.

For the substance “29957-DC (sense GCAGUUACUUCCACUCAAGTT; antisense CUUGAGUGGAAGUAACUGCUU; inverted abasic end caps, TT overhangs, modified nucleotides, further chemistry not given here)”, the “% KD” value in the data set with Bach1 mRNA is given as 42.4 ± 1.2%. Further, in the data set on HMOX-1 mRNA, the EC50 was found to be 33.6 ± 20 pM and the “Maximum % Hmox-1 Increase in DRC” value came to 213 ± 29%.
On to “29964-DC (sense GAUUUGCAGGUGAUGUUAATT; antisense UUAACAUCACCUGCAAAUCUU; inverted abasic end caps, TT overhangs, modified nucleotides, further chemistry not given here)”, for which, in the data set with Bach1 mRNA, the “% KD” value is reported as 19.6 ± 3.9%. Also, in the data set with HMOX-1 mRNA, a half-maximal effect (EC50) was put at 21.8 ± 15.5 pM and the “Maximum % Hmox-1 Increase in DRC” value turned out to be 240 ± 30%. Moreover, in the data set with Male CD rats, the cytokine production result was “no significant increases”; the “inflammatory cell (neutrophils and macrophages) influx” value (shortened to “inflammatory cell”) is given as “no significant increases”.
With “29984-DC (sense GUUAAAGGAUUUGAACCUUTT; antisense AAGGUUCAAAUCCUUUAACUU; inverted abasic end caps, TT overhangs, modified nucleotides, further chemistry not given here)”, in the data set with Bach1 mRNA, the “% KD” value stood at 50.5 ± 0.8%.
With “29961-DC (sense CUACACUGCUAAACUGAUUTT; antisense AAUCAGUUUAGCAGUGUAGUU; inverted abasic end caps, TT overhangs, modified nucleotides, further chemistry not given here)”, the “% KD” value in the data set with Bach1 mRNA is reported as −23.5 ± 4.6%. Besides, in the data set on HMOX-1 mRNA, the EC50 is 10.4 ± 10 pM and the “Maximum % Hmox-1 Increase in DRC” value worked out at 262 ± 87%. In the data set on Male CD rats, the cytokine production entry was “no significant increases”; the “inflammatory cell” value was “no significant increases”.
On to “29988-DC (sense AUUUGAACCUUUAAUUCAGTT; antisense CUGAAUUAAAGGUUCAAAUUU; inverted abasic end caps, TT overhangs, modified nucleotides, further chemistry not given here)”, for which, in the data set on Bach1 mRNA, the “% KD” value worked out at 71.3 ± 8.9%. Also, in the data set on HMOX-1 mRNA, the EC50 was 38.2 ± 29.8 pM and the “Maximum % Hmox-1 Increase in DRC” value is 190 ± 62%. In addition, in the data set on Male CD rats, the cytokine production entry is recorded as “no significant increases”; the “inflammatory cell” value was “no significant increases”.
Consider “29956-DC (sense GUCUGAGUGUCCGUGGUUATT; antisense UAACCACGGACACUCAGACUU; inverted abasic caps (B), 2'-modified nucleotides, further chemistry not given here)”, for which the “% KD” value with Bach1 mRNA is on record as −14.5 ± 8.4%. Moreover, in the data set on HMOX-1 mRNA, the midpoint of the response, the EC50, lay at 30.9 ± 19.9 pM and the “Maximum % Hmox-1 Increase in DRC” value came out at 308 ± 87%.
As for “29947-DC (sense GGAAUCCUGCUUUCAGUUUTT; antisense AAACUGAAAGCAGGAUUCCUU; inverted abasic caps (B), 2'-modified nucleotides, further chemistry not given here)”, the “% KD” value in the data set with Bach1 mRNA is listed as 46 ± 5.8%. Besides, in the data set on HMOX-1 mRNA, a half-maximal response (EC50) required 37.7 ± 21.5 pM and the “Maximum % Hmox-1 Increase in DRC” value is given as 187 ± 71%. For the same substance, in the data set with Male CD rats, the cytokine production result is listed as “no significant increases”; the “inflammatory cell” value is reported as “no significant increases”.
